Structures can show the parent of a compound that is named as a salt.

The values that follow come from patent US20240166639A1, “POTENT AND SELECTIVE COMPOUNDS AS SEROTONIN 1B RECEPTOR MODULATORS” (LEUKOS BIOTECH, S.L., priority 2020, published 2024).

One assay has as its system HL-60. In words: Cell viability assay, AML cell line HL-60. Type of assay: cell-based. The settings on record: 48 h treatment, live cells by flow cytometry. The protocol:
(§1) 0.15×10^6 AML cell lines (HL-60 or MonoMac-1) per mL were cultured in completed RPMI medium, supplemented with 10% Fetal bovine serum (FBS). Compounds were added to the medium at the concentration indicated (0.1, 1 and 10 μM), while controls were treated with equivalent concentration of vehicle (DMSO). Primary validation screenings were analyzed after 72 h of treatment, EC50 was determined upon 48 h treatments. Cells were stained with the live-dead discrimination dye 7-aminoactinomycin D (7-AAD) and Hoechst 33342 and acquired in a flow cytometer, with a volumetric counting. Live cells were discriminated based on a discrete FSC-SSC profile, 7-AAD negativity and dim positivity to Hoechst 33342. EC50 was calculated with the Prism GraphPad software.
(In general: In flow cytometry, cells or beads pass a laser one at a time.)

Another assay relates to MonoMac-1. In words: Cell viability assay, AML cell line MonoMac-1. It counts as cell-based. The settings on record: 48 h treatment, live cells by flow cytometry. The method, then:
as §1

In a further assay the target is human 5-HT2A receptor (Homo sapiens (Human), UniProt P28223). In words: Competition binding in human 5-HT2A receptor. The settings on record: [3H]-Ketanserin, CHO-5-HT2A membranes; read-out: h5-HT2A Ki. The method, then: Serotonin 5-HT2A receptor competition binding experiments were carried out in a polypropilene 96-well plate. In each well was incubated 80 μg of membranes from CHO-5-HT2A cell line prepared in the laboratory (protein concentration=4337 μg/ml), 1 nM [^3H]-Ketanserin (47.3 Ci/mmol, 1 mCi/ml, Perkin Elmer NET791250UC) and compounds studied and standard. Non-specific binding was determined in the presence of Methysergide 1 μM (Sigma M137). The reaction mixture (Vt: 250 μl/well) was incubated at 37° C. for 30 min, 200 μL was transfered to GF/B 96-well plate (Millipore, Madrid, Spain) pretreated with 0.5% of PEI and treated with binding buffer (Tris-HCl 50 mM, pH=7.4), after was filtered and washed six times with 250 μl wash buffer (Tris-HCl 50 mM, pH=6.6), before measuring in a microplate beta scintillation counter (Microbeta Trilux, PerkinElmer, Madrid, Spain).
Chain of human 5-HT2A receptor (P28223 whole entry): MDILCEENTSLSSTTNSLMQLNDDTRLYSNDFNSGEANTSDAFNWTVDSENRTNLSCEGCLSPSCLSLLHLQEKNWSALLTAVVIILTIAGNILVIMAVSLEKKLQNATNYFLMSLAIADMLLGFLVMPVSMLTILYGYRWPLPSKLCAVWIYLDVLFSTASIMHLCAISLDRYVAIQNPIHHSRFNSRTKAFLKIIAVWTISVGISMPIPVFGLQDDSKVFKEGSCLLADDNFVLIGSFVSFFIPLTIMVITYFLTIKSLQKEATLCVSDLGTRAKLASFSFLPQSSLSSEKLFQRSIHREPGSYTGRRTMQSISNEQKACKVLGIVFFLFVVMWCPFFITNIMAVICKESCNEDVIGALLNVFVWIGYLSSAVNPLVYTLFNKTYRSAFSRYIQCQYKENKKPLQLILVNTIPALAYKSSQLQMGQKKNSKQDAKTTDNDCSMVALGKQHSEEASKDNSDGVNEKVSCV
The raw radioactivity data is adjusted to a logistic regression of 4 parameters using GraphPad Prism software, from the specific junction the value of IC50 is obtained. From the IC50 the Ki is calculated according to the following formula: […]
(§2) Being: • IC50: inhibitory concentration, • D: real concentration of radioligand and • Kd: dissociation constant (affinity of radioligand to the receptor).

In another assay the target is human 5-HT1B receptor (Homo sapiens (Human), UniProt P28222). The assay can be described thus: Competition binding in human 5-HT1B receptor. The settings on record: [3H]-GR125743, Hela-5-HT1B membranes; read-out: h5-HT1B Ki. The protocol: Serotonin 5-HT1B receptor competition binding experiments were carried out in a polypropylene 96-well plate. In each well was incubated 5 μg of membranes from Hela-5-HT1B cell line prepared in the laboratory (Lot: A001/14-11-2011, protein concentration=3179 μg/ml), 1.5 nM [^3H]-GR125743 ([…], 0.1 mCi/ml, Perkin Elmer NET1172100UC) and compounds studied and standard. Non-specific binding was determined in the presence of GR55562 10 μM (TOCRIS 1054). The reaction mixture (Vt: 250 μl/well) was incubated at 25° C. for 90 min, 200 μL was transfered to GF/C 96-well plate (Millipore, Madrid, Spain) pretreated with 0.5% of PEI and treated with binding buffer (Tris-HCl 50 mM, EDTA 1 mM, MgCl2 10 mM, pH=7.4), after was filtered and washed four times with 250 μl wash buffer (Tris-HCl 50 mM, pH=7.4), before measuring in a microplate beta scintillation counter (Microbeta Trilux, PerkinElmer, Madrid, Spain). […] From the IC50 the Ki is calculated according to the following formula: […]
Chain of human 5-HT1B receptor (P28222 whole entry): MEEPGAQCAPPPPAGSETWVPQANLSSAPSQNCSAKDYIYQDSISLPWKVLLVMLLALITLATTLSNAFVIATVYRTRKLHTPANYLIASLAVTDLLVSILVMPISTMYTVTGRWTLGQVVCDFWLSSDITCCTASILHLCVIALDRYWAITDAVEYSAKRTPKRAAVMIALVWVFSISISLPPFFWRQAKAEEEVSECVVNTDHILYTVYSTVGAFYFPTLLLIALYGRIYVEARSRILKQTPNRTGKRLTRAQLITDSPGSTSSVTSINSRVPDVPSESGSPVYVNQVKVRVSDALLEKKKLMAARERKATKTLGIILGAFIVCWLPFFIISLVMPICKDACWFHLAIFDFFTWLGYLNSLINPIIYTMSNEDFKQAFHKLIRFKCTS
as §2

In the case of `Cc1nc(-c2ccc(-c3ccc(C(=O)Nc4ccc(C#N)c(OCCN(C)C)c4)cn3)c(F)c2)no1` [Example 8, N-(4-cyano-3-(2-(dimethylamino)ethoxy)phenyl)-6-(2-fluoro-4-(5-methyl-1,2,4-oxadiazol-3-yl)phenyl)nicotinamide], the EC50 – broadly, the midpoint of the concentration-response curve – with HL-60 (Homo sapiens, HL-60) was found to be 2810 nM; with MonoMac-1 (Mono-Mac-1), 2000 nM.

Regarding `Cc1nc(-c2ccc(-c3ccc(C(=O)Nc4cc(OCCN(C)C)c(Br)cn4)cc3)c(F)c2)no1` [Example 16, N-(5-bromo-4-(2-(dimethylamino)ethoxy)pyridin-2-yl)-2′-fluoro-4′-(5-methyl-1,2,4-oxadiazol-3-yl)-[1,1′-biphenyl]-4-carboxamide], the EC50 is 1080 nM in the assay on HL-60 (Homo sapiens, HL-60) and 460 nM in the assay with MonoMac-1 (Mono-Mac-1).

`Cc1nc(-c2ccc(-c3ccc(C(=O)N4CCc5cc6c(cc54)C4(CCN(C)CC4)CO6)cc3)c(C)c2)no1` [SB9, 1′-Methyl-5-[[2′-methyl-4′-(5-methyl-1,2,4-oxadiazol-3-yl)biphenyl-4-yl]carbonyl]-2,3,6,7-tetrahydrospiro[furo[2,3-f]indole-3,4′-piperidine hydrochloride, reference compound]: the EC50 stood at 4780 nM in the assay on HL-60 (Homo sapiens, HL-60) and 1180 nM in the assay with MonoMac-1 (Mono-Mac-1). Further, at human 5-HT2A receptor, the Ki (as a rule, the dissociation constant of the complex between target and ligand, obtained from inhibition or displacement) was determined as 5.92 nM.

`COc1cc(-c2noc(C)n2)ccc1-c1ccc(C(=O)Nc2cc(OCCN(C)C)c(C#N)cn2)cc1` [Example 25, N-(5-cyano-4-(2-(dimethylamino)ethoxy)pyridin-2-yl)-2′-methoxy-4′-(5-methyl-1,2,4-oxadiazol-3-yl)-[1,1′-biphenyl]-4-carboxamide]: the EC50 in the assay with HL-60 (Homo sapiens, HL-60) was 2800 nM; with MonoMac-1 (Mono-Mac-1), 2690 nM.

Turning to `COc1cc(-c2noc(C)n2)ccc1-c1ccc(C(=O)Nc2ccc(Br)c(OCCN(C)C)c2)cn1` [Example 5, N-(4-bromo-3-(2-(dimethylamino)ethoxy)phenyl)-6-(2-methoxy-4-(5-methyl-1,2,4-oxadiazol-3-yl)phenyl)nicatinamide], the results for the EC50 in the assay with HL-60 and in the assay with MonoMac-1 were 1180 nM and 1140 nM, respectively.

As to `Cc1nc(-c2ccc(-c3ccc(C(=O)Nc4cc(OCCN(C)C)c(Br)cn4)cn3)c(Cl)c2)no1` [Example 41, N-(5-bromo-4-(2-(dimethylamino)ethoxy)pyridin-2-yl)-6-(2-chloro-4-(5-methyl-1,2,4-oxadiazol-3-yl)phenyl)nicotinamide], the Ki was found to be 1000 nM at human 5-HT2A receptor and 0.3 nM at human 5-HT1B receptor.

With `Cc1nc(-c2ccc(-c3ccc(C(=O)Nc4ccc(C#N)c(OCCN(C)C)c4)cn3)c(Cl)c2)no1` [Example 9, 6-(2-chloro-4-(5-methyl-1,2,4-oxadiazol-3-yl)phenyl)-N-(4-cyano-3-(2-(dimethylamino)ethoxy)phenyl)nicotinamide], the EC50 came to 990 nM in the assay on HL-60 (Homo sapiens, HL-60) and 880 nM in the assay on MonoMac-1 (Mono-Mac-1).

In the case of `Cc1nc(-c2ccc(-c3ccc(C(=O)Nc4ccc(Br)c(OCCN(C)C)c4)cn3)c(F)c2)no1` [Example 2, N-(4-bromo-3-(2-(dimethylamino)ethoxy)phenyl)-6-(2-fluoro-4-(5-methyl-1,2,4-oxadiazol-3-yl)phenyl)nicotinamide], the half-maximal effective concentration (EC50) stood at 580 nM with HL-60 (Homo sapiens, HL-60) and 1110 nM in the assay with MonoMac-1 (Mono-Mac-1).

With `Cc1nc(-c2ccc(-c3ccc(C(=O)Nc4ccc(C#N)c(OCCN(C)C)n4)cc3)c(C3CC3)c2)no1` [Example 30, N-(5-cyano-6-(2-(dimethylamino)ethoxy)pyridin-2-yl)-2′-cyclopropyl-4′-(5-methyl-1,2,4-oxadiazol-3-yl)-[1,1′-biphenyl]-4-carboxamide], the EC50 with HL-60 (Homo sapiens, HL-60) is 1030 nM; in the assay with MonoMac-1 (Mono-Mac-1), 2800 nM.

`Cc1nc(-c2ccc(-c3ccc(C(=O)Nc4cc(OCCN(C)C)c(Br)cn4)cc3)c(Cl)c2)no1` [Example 17, N-(5-bromo-4-(2-(dimethylamino)ethoxy)pyridin-2-yl)-2′-chloro-4′-(5-methyl-1,2,4-oxadiazol-3-yl)-[1,1′-biphenyl]-4-carboxamide]: the EC50 in the assay on HL-60 (Homo sapiens, HL-60) amounted to 2650 nM; with MonoMac-1 (Mono-Mac-1), 1320 nM.

With `Cc1nc(-c2ccc(-c3ccc(C(=O)Nc4ccc(Br)c(OCCN(C)C)n4)cn3)c(F)c2)no1` [Example 52, N-(5-bromo-6-(2-(dimethylamino)ethoxy)pyridin-2-yl)-6-(2-fluoro-4-(5-methyl-1,2,4-oxadiazol-3-yl)phenyl)nicotinamide], the EC50 in the assay on HL-60 (Homo sapiens, HL-60) was found to be 1030 nM; in the assay on MonoMac-1 (Mono-Mac-1) it was 4320 nM.

For `Cc1nc(-c2ccc(-c3ccc(C(=O)Nc4ccc(Br)c(OCCN(C)C)c4)cn3)c(Cl)c2)no1` [Example 3, N-(4-bromo-3-(2-(dimethylamino)ethoxy)phenyl)-6-(2-chloro-4-(5-methyl-1,2,4-oxadiazol-3-yl)phenyl)nicotinamide], the EC50 worked out at 1620 nM in the assay on HL-60 (Homo sapiens, HL-60) and 870 nM in the assay with MonoMac-1 (Mono-Mac-1).

Take `Cc1nc(-c2ccc(-c3ccc(NC(=O)c4ccc(C#N)c(OCCN(C)C)c4)cn3)c(Cl)c2)no1` [Example 73, N-(6-(2-chloro-4-(5-methyl-1,2,4-oxadiazol-3-yl)phenyl)pyridin-3-yl)-4-cyano-3-(2-(dimethylamino)ethoxy)benzamide]: the EC50 with HL-60 (Homo sapiens, HL-60) came out at 1530 nM; with MonoMac-1 (Mono-Mac-1), 3080 nM.

Take `Cc1nc(-c2ccc(-c3ccc(C(=O)Nc4cc(OCCN(C)C)c(Br)cn4)cc3)c(C(F)(F)F)c2)no1` [Example 18, N-(5-bromo-4-(2-(dimethylamino)ethoxy)pyridin-2-yl)-4′-(5-methyl-1,2,4-oxadiazol-3-yl)-2′-(trifluoromethyl)-[1,1′-biphenyl]-4-carboxamide]: the EC50 in the assay on HL-60 (Homo sapiens, HL-60) came out at 1170 nM; in the assay on MonoMac-1 (Mono-Mac-1), 420 nM.

In the case of `Cc1nc(-c2ccc(-c3ccc(C(=O)Nc4ccc(C#N)c(OCCN(C)C)n4)cn3)c(Cl)c2)no1` [Example 56, 6-(2-chloro-4-(5-methyl-1,2,4-oxadiazol-3-yl)pheny)-N-(5-cyano-6-(2-(dimethylamino)ethoxy)pyridin-2-yl)nicotinamide], the EC50 in the assay on HL-60 amounted to 620 nM; in the assay with MonoMac-1, 2020 nM.

For `Cc1nc(-c2ccc(-c3ccc(C(=O)Nc4ccc(Br)c(OCCN(C)C)c4)cn3)c(C3CC3)c2)no1` [Example 1, N-(4-bromo-3-(2-(dimethylamino)ethoxy)phenyl)-6-(2-cyclopropyl-4-(5-methyl-1,2,4-oxadiazol-3-yl)phenyl)nicotinamide], the EC50 in the assay with HL-60 (Homo sapiens, HL-60) worked out at 1000 nM; in the assay with MonoMac-1 (Mono-Mac-1), 790 nM.

`Cc1nc(-c2ccc(-c3ccc(C(=O)Nc4ncc(Br)c(OCCN(C)C)n4)cn3)c(F)c2)no1` [Example 58, N-(5-bromo-4-(2-(dimethylamino)ethoxy)pyrimidin-2-yl)-6-(2-fluoro-4-(5-methyl-1,2,4-oxadiazol-3-yl)phenyl)nicotinamide]: the EC50 with HL-60 (Homo sapiens, HL-60) was determined as 3790 nM; with MonoMac-1 (Mono-Mac-1) it was 2610 nM.

`Cc1nc(-c2ccc(-c3ccc(C(=O)Nc4ccc(Br)c(OCCN(C)C)n4)cn3)c(C3CC3)c2)no1` [Example 51, N-(5-bromo-6-(2-(dimethylamino)ethoxy)pyridin-2-yl)-6-(2-cyclopropyl-4-(5-methyl-1,2,4-oxadiazol-3-yl)phenyl)nicotinamide]: the EC50 was 1990 nM in the assay on HL-60 (Homo sapiens, HL-60) and 1200 nM in the assay with MonoMac-1 (Mono-Mac-1).

On to `Cc1nc(-c2ccc(-c3ccc(C(=O)Nc4ccc(Br)c(OCCN(C)C)n4)cn3)c(Cl)c2)no1` [Example 53, N-(5-bromo-6-(2-(dimethylamino)ethoxy)pyridin-2-yl)-6-(2-chloro-4-(5-methyl-1,2,4-oxadiazol-3-yl)phenyl)nicotinamide], for which the EC50 came out at 600 nM in the assay on HL-60 (Homo sapiens, HL-60) and 1320 nM in the assay on MonoMac-1 (Mono-Mac-1).

For the molecule `Cc1nc(-c2ccc(-c3ccc(C(=O)Nc4cc(OCCN(C)C)c(Br)cn4)cn3)c(C(F)(F)F)c2)no1` [Example 42, N-(5-bromo-4-(2-(dimethylamino)ethoxy)pyridin-2-yl)-6-(4-(5-methyl-1,2,4-oxadiazol-3-yl)-2-(trifluoromethyl)phenyl)nicotinamide], the Ki at human 5-HT2A receptor came to 3500 nM; on human 5-HT1B receptor, 2 nM.
